Converted amounts (≈) assume the structure as drawn. The source made the active and inactive calls. The calls are words filed in the database; no cut-off is given here.
Columns and labels:
Type in all cases: functional
[1] = tested on: Pseudomonas aeruginosa; experiment: Antibacterial activity against Pseudomonas aeruginosa MTCC 2453 after 24 hrs by well diffusion method; details: MTCC 2453, 24 h
[2] = tested on: Escherichia coli; experiment: Antibacterial activity against Escherichia coli MTCC 739 after 24 hrs by well diffusion method; details: MTCC 739, 24 h
[3] = tested on: Staphylococcus aureus; experiment: Antibacterial activity against Staphylococcus aureus MLS16 MTCC 2940 after 24 hrs by well diffusion method; details: MLS16 MTCC 2940, 24 h
[4] = tested on: Staphylococcus aureus; experiment: Antibacterial activity against Staphylococcus aureus MTCC 96 after 24 hrs by well diffusion method; details: MTCC 96, 24 h
[5] = tested on: Micrococcus luteus; experiment: Antibacterial activity against Micrococcus luteus MTCC 2470 after 24 hrs by well diffusion method; details: MTCC 2470, 24 h
[6] = tested on: Bacillus subtilis; experiment: Antibacterial activity against Bacillus subtilis MTCC 121 after 24 hrs by well diffusion method; details: MTCC 121, 24 h
[7] = tested on: Raoultella planticola; experiment: Antibacterial activity against Klebsiella planticola MTCC 530 after 24 hrs by well diffusion method; details: MTCC 530, 24 h
[8] = tested on: Staphylococcus aureus; experiment: Bactericidal activity against Staphylococcus aureus MLS16 MTCC 2940 after 24 hrs by serial dilution method; details: MLS16 MTCC 2940, 24 h
[9] = tested on: Bacillus subtilis; experiment: Bactericidal activity against Bacillus subtilis MTCC 121 after 24 hrs by serial dilution method; details: MTCC 121, 24 h
[10] = tested on: Micrococcus luteus; experiment: Bactericidal activity against Micrococcus luteus MTCC 2470 after 24 hrs by serial dilution method; details: MTCC 2470, 24 h
[11] = tested on: Staphylococcus aureus; experiment: Bactericidal activity against Staphylococcus aureus MTCC 96 after 24 hrs by serial dilution method; details: MTCC 96, 24 h
[12] = tested on: Staphylococcus aureus; experiment: Ratio of MBC to MIC for Staphylococcus aureus MLS16 MTCC 2940
[13] = tested on: Bacillus subtilis; experiment: Antibiofilm activity against Bacillus subtilis MTCC 121 after 24 hrs by crystal violet staining based assay; details: MTCC 121, 24 h
[14] = tested on: Staphylococcus aureus; experiment: Antibiofilm activity against Staphylococcus aureus MLS16 MTCC 2940 after 24 hrs by crystal violet staining based assay; details: MLS16 MTCC 2940, 24 h
[15] = tested on: Micrococcus luteus; experiment: Antibiofilm activity against Micrococcus luteus MTCC 2470 after 24 hrs by crystal violet staining based assay; details: MTCC 2470, 24 h
[16] = tested on: Bacillus subtilis; experiment: Ratio of MBC to MIC for Bacillus subtilis MTCC 121
[17] = tested on: Staphylococcus aureus; experiment: Antibiofilm activity against Staphylococcus aureus MTCC 96 after 24 hrs by crystal violet staining based assay; details: MTCC 96, 24 h
[18] = tested on: Staphylococcus aureus; experiment: Ratio of MBC to MIC for Staphylococcus aureus MTCC 96
[19] = tested on: Micrococcus luteus; experiment: Ratio of MBC to MIC for Micrococcus luteus MTCC 2470
[20] = tested on: Micrococcus luteus; experiment: Induction of ROS generation in Micrococcus luteus MTCC 2470 mature biofilms at up to 4 ug/ml after 24 hrs by DCFH-DA staining based fluorometric assay

Row | MIC [1] [µg/mL] | MIC [2] [µg/mL] | MIC [3] [µg/mL] | MIC [4] [µg/mL] | MIC [5] [µg/mL] | MIC [6] [µg/mL] | IC50 [13] [µg/mL] | IC50 [15] [µg/mL] | IC50 [17] [µg/mL] | Compound | MIC [7] [µg/mL] | MBC [8] [µg/mL] | MBC [9] [µg/mL] | MBC [10] [µg/mL] | MBC [11] [µg/mL] | Ratio [12] | IC50 [14] [µg/mL] | Ratio [16] | Ratio [18] | Ratio [19] | Activity [20]
1 | > 125 | > 125 | > 125 | > 125 | > 125 | > 125 | – | – | – | Cn1c2c(c(=O)n(C)c1=O)C(c1cn(-c3ccccc3)nc1-c1ccc([N+](=O)[O-])cc1)N(c1ccc(Cl)cc1)C=N2 (configuration not stated) | > 125 | – | – | – | – | – | – | – | – | – | –
2 | > 125 | > 125 | 15.6 (≈ 31.5 µM) | 31.2 (≈ 63.1 µM) | 15.6 (≈ 31.5 µM) | 31.2 (≈ 63.1 µM) | – | – | – | Cn1c2c(c(=O)n(C)c1=O)C(c1cn(-c3ccccc3)nc1-c1cccs1)N(c1ccccc1)C=N2 (configuration not stated) | > 125 | – | – | – | – | – | – | – | – | – | –
3 | > 125 | > 125 | 15.6 (≈ 29.5 µM) | 31.2 (≈ 59 µM) | 15.6 (≈ 29.5 µM) | 15.6 (≈ 29.5 µM) | – | – | – | Cn1c2c(c(=O)n(C)c1=O)C(c1cn(-c3ccccc3)nc1-c1cccs1)N(c1ccc(Cl)cc1)C=N2 (configuration not stated) | > 125 | 31.2 (≈ 59 µM) | 31.2 (≈ 59 µM) | 31.2 (≈ 59 µM) | 31.2 (≈ 59 µM) | – | – | – | – | – | –
4 | > 125 | > 125 | > 125 | > 125 | > 125 | > 125 | – | – | – | COc1ccc(N2C=Nc3c(c(=O)n(C)c(=O)n3C)C2c2cn(-c3ccccc3)nc2-c2ccccc2)cc1 (configuration not stated) | > 125 | – | – | – | – | – | – | – | – | – | –
5 | > 125 | > 125 | > 125 | > 125 | 31.2 (≈ 53.9 µM) | > 125 | – | – | – | Cn1c2c(c(=O)n(C)c1=O)C(c1cn(-c3ccccc3)nc1-c1ccc([N+](=O)[O-])cc1)N(c1cccc([N+](=O)[O-])c1)C=N2 (configuration not stated) | > 125 | > 125 | > 125 | 62.5 (≈ 108 µM) | > 125 | – | – | – | – | – | –
6 | > 125 | > 125 | > 125 | > 125 | > 125 | > 125 | – | – | – | Cn1c2c(c(=O)n(C)c1=O)C(c1cn(-c3ccccc3)nc1-c1ccc([N+](=O)[O-])cc1)N(c1ccccc1)C=N2 (configuration not stated) | > 125 | – | – | – | – | – | – | – | – | – | –
7 | > 125 | > 125 | 31.2 (≈ 55.4 µM) | 31.2 (≈ 55.4 µM) | 15.6 (≈ 27.7 µM) | 31.2 (≈ 55.4 µM) | – | – | – | COc1ccc(N2C=Nc3c(c(=O)n(C)c(=O)n3C)C2c2cn(-c3ccccc3)nc2-c2ccc([N+](=O)[O-])cc2)cc1 (configuration not stated) | > 125 | 31.2 (≈ 55.4 µM) | 31.2 (≈ 55.4 µM) | 15.6 (≈ 27.7 µM) | 62.5 (≈ 111 µM) | – | – | – | – | – | –
8 | > 125 | > 125 | > 125 | > 125 | 15.6 (≈ 29 µM) | > 125 | – | – | – | Cc1ccc(N2C=Nc3c(c(=O)n(C)c(=O)n3C)C2c2cn(-c3ccccc3)nc2-c2ccc(Cl)cc2)cc1 (configuration not stated) | > 125 | > 125 | > 125 | 31.2 (≈ 58.1 µM) | > 125 | – | – | – | – | – | –
9 | > 125 | > 125 | 7.8 (≈ 14.2 µM) | 15.6 (≈ 28.5 µM) | 15.6 (≈ 28.5 µM) | 7.8 (≈ 14.2 µM) | 18.3 (≈ 33.4 µM) | 10.1 (≈ 18.4 µM) | 12.6 (≈ 23 µM) | Cc1ccc(N2C=Nc3c(c(=O)n(C)c(=O)n3C)C2c2cn(-c3ccccc3)nc2-c2ccc([N+](=O)[O-])cc2)cc1 (configuration not stated) | > 125 | 15.6 (≈ 28.5 µM) | 31.2 (≈ 57 µM) | 15.6 (≈ 28.5 µM) | 31.2 (≈ 57 µM) | 2 | 9.5 (≈ 17.3 µM) | 2 | 2 | 2 | –
10 | > 125 | > 125 | > 125 | > 125 | > 125 | > 125 | – | – | – | COc1ccc(N2C=Nc3c(c(=O)n(C)c(=O)n3C)C2c2cn(-c3ccccc3)nc2-c2ccc(C)cc2)cc1 (configuration not stated) | > 125 | 31.2 (≈ 58.6 µM) | 62.5 (≈ 117 µM) | 15.6 (≈ 29.3 µM) | 62.5 (≈ 117 µM) | – | – | – | – | – | –
11 | > 125 | > 125 | > 125 | > 125 | > 125 | > 125 | – | – | – | Cc1ccc(-c2nn(-c3ccccc3)cc2C2c3c(n(C)c(=O)n(C)c3=O)N=CN2c2cccc([N+](=O)[O-])c2)cc1 (configuration not stated) | > 125 | – | – | – | – | – | – | – | – | – | –

Row | Compound | MIC [1] [µg/mL] | MIC [2] [µg/mL] | MIC [3] [µg/mL] | MIC [4] [µg/mL] | MIC [5] [µg/mL] | MIC [6] [µg/mL] | IC50 [13] [µg/mL] | IC50 [15] [µg/mL] | IC50 [17] [µg/mL] | MIC [7] [µg/mL] | MBC [8] [µg/mL] | MBC [9] [µg/mL] | MBC [10] [µg/mL] | MBC [11] [µg/mL] | Ratio [12] | IC50 [14] [µg/mL] | Ratio [16] | Ratio [18] | Ratio [19] | Activity [20]
12 | O=C(O)c1cn(C2CC2)c2cc(N3CCNCC3)c(F)cc2c1=O [CIPROFLOXACIN] | 0.9 (≈ 2.72 µM) | 0.9 (≈ 2.72 µM) | 0.9 (≈ 2.72 µM) | 0.9 (≈ 2.72 µM) | 0.9 (≈ 2.72 µM) | 0.9 (≈ 2.72 µM) | – | – | – | 0.9 (≈ 2.72 µM) | 0.9 (≈ 2.72 µM) | 0.9 (≈ 2.72 µM) | 1.9 (≈ 5.73 µM) | 1.9 (≈ 5.73 µM) | – | 0.4 (≈ 1.21 µM) | – | – | – | Active
